# Reference: paper PMC10866072, “Design, synthesis, molecular modelling and biological evaluation of novel 6-amino-5-cyano-2-thiopyrimidine derivatives as potent anticancer agents against leukemia and apoptotic inducers” (Journal of Enzyme Inhibition and Medicinal Chemistry, 2024)
# Like-named read-outs stand apart in the source and are kept apart here.
# Legend:
# U251 = assay type: cell-based
# SR = assay type: cell-based
# [1] = system: Prostate cancer cell lines; test: NCI-60 five-dose, subpanel
# From the text: A measure of a compound’s selectivity for a given cell line is the ratio created by dividing the full panel mean graph midpoints (MG-MID) concentration by the individual subpanel MG-MID concentrations (obtained as the average sensitivity of all the cell lines in a given subpanel to the test compound).
# (§2) Assessment of selectivity of a compound depends on the ratio obtained by dividing the full panel MID ^a by their individual subpanel MID ^b (µM) where MID^a is the average sensitivity of all cell lines towards the test agent (µM).
# UACC-257 = assay type: cell-based
# HCT-116 = assay type: cell-based
# leukaemia cell lines = test: NCI-60 five-dose, subpanel
# From the text: (§3) Furthermore, the average sensitivity of all cell lines to the compound is termed as the full panel mean graph midpoints (MG-MID). The complete panel mean graph midpoints refers to the average sensitivity of all cell lines to the chemical (MG-MID). A measure of a compound’s selectivity for a given cell line is the ratio created by dividing the full panel mean graph midpoints (MG-MID) concentration by the individual subpanel MG-MID concentrations (obtained as the average sensitivity of all the cell lines in a given subpanel to the test compound).
# as §2
# DU-145 = assay type: cell-based
# PI3Kβ = target: T1, PI3Kβ (Homo sapiens, UniProt P42338); test: PI3 Kinase Activity/Inhibitor Assay Kit; assay type: biochemical; conditions: mean of two independent replicates ± SD
# T1 construct: purchased Millipore Corporation 17-493 (assay kit)
# T1 sequence (P42338 whole entry, species assumed): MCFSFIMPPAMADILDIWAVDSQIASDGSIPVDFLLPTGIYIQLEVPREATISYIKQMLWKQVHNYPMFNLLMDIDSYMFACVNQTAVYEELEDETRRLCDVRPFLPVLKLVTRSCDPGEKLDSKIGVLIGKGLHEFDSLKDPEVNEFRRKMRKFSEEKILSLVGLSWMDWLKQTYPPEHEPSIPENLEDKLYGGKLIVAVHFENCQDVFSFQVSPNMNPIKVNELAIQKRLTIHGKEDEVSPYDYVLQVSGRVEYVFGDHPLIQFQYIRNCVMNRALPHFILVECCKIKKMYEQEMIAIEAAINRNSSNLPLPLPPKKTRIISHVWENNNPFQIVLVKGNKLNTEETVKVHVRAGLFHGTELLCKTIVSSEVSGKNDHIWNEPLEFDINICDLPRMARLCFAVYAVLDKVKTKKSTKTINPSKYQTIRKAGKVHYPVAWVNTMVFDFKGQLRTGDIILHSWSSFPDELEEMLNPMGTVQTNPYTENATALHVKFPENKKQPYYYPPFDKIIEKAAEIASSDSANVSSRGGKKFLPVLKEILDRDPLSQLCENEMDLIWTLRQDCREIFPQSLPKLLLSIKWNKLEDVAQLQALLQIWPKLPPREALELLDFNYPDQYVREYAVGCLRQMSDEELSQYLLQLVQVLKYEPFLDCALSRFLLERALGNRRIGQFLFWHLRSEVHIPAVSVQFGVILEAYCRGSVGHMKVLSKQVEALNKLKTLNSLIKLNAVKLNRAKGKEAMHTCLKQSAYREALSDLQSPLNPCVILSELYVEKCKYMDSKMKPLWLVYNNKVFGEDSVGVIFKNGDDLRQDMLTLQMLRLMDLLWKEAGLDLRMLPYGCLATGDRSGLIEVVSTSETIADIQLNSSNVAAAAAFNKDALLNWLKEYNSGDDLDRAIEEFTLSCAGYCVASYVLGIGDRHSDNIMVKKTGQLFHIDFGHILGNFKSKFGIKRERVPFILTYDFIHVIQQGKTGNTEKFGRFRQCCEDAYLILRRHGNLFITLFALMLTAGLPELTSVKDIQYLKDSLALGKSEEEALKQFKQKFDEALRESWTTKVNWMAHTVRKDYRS
# T1 sequence (P27986 whole entry partner, species assumed): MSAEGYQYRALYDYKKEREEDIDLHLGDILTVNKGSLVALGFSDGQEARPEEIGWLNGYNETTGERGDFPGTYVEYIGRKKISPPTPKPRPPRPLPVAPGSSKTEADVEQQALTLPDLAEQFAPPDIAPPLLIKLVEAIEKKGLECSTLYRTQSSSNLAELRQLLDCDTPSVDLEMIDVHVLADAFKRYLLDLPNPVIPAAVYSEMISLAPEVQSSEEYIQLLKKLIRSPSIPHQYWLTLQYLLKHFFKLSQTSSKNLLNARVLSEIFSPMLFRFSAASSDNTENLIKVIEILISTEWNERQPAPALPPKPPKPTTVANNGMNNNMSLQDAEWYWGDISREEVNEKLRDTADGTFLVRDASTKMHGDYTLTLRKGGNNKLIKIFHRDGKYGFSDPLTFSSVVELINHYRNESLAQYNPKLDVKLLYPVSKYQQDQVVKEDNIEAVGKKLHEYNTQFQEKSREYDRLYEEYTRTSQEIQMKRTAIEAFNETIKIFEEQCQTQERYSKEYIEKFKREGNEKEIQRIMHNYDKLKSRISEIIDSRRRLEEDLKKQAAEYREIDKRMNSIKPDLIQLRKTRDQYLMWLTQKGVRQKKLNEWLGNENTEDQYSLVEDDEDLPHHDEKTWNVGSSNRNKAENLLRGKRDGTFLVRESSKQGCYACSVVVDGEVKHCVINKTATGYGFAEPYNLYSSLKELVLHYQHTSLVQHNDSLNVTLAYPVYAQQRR
# Procedure: (§4) In vitro PI3 kinases inhibitory activity assay
# (§5) All buffers, working standards and samples were prepared.
# (§6) A total of 5 μl/well 5X kinase reaction buffer was added following the addition of the substrate, then distilled water was added to fill up to 25 μl. After incubation for 1 h at room temperature, 25 μl of biotinylated PIP3/EDTA working solution was added to all wells except the buffer control. Instead, 25 μl tris-buffered saline (TBS) was added to the buffer control wells. A general receptor phosphoinsitides -1 working solution was added to all wells then, was incubated for 1 h at room temperature. After incubation, all wells were washed with 200 μl 1X TBS -Tween followed by addition of 50 μl (horseradish peroxide as econjugated streptavidin) SA -HRP then were incubated for 1 h at room temperature. All wells were washed using 100 μl 1X TBS -Tween and TBS followed by addition of 100 μl of substrate 3,3’,5,5’-tetramethylbenzidine and kept in dark for 5–20 min.
# IGROV1 = assay type: cell-based
# 786-0 = assay type: cell-based
# A498 = assay type: cell-based
# [2] = system: full NCI 60 cell lines panel
# melanoma cell lines = test: NCI-60 five-dose, subpanel
# From the text: as §3, §2
# SK-MEL-2 = assay type: cell-based
# M14 = assay type: cell-based
# NCI-H522 = assay type: cell-based
# KM12 = assay type: cell-based
# PI3Kα = target: T2, PI3Kα (Homo sapiens, UniProt P42336); test: PI3 Kinase Activity/Inhibitor Assay Kit; assay type: biochemical; conditions: mean of two independent replicates ± SD
# T2 construct: purchased Millipore Corporation 17-493 (assay kit)
# T2 sequence (P42336 whole entry, species assumed): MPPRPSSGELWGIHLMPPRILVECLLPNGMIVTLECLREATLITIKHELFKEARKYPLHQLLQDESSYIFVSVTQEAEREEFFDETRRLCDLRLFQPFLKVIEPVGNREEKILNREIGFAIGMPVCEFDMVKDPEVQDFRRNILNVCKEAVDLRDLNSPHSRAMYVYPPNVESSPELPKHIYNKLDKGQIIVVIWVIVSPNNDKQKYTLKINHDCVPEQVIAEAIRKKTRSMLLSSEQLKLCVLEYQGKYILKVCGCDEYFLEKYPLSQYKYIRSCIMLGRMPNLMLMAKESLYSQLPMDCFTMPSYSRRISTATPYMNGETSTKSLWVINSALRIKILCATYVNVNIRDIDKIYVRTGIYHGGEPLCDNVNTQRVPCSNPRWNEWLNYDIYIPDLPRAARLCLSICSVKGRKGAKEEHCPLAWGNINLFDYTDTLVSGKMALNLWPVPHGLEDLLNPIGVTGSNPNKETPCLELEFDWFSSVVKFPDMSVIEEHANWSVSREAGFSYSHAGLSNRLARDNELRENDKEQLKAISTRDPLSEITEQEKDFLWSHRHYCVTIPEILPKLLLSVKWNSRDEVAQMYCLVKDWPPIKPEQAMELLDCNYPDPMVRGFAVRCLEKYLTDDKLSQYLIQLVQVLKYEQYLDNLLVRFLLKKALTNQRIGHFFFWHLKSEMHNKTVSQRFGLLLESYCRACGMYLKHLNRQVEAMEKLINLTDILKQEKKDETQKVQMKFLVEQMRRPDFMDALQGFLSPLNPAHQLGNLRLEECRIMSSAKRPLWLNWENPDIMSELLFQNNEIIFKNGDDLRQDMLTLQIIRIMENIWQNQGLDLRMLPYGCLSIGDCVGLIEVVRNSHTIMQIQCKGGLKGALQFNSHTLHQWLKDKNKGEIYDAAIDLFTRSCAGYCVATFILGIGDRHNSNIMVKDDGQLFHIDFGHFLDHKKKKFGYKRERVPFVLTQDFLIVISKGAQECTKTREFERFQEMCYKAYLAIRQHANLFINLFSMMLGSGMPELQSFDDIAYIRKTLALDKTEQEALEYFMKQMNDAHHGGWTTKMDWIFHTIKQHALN
# T2 sequence (P27986 whole entry partner, species assumed): as the sequence (P27986 whole entry partner, species assumed) above
# Procedure: as §4, §5, §6
# HL60 cells = test: Annexin V-FITC/PI apoptosis and necrosis assay; assay type: cell-based, human; conditions: HL60, 48 h treatment
# Procedure: (§1) For more assessment of compound 1c, apoptosis assay was performed using annexin V-FITC Apoptosis detection kit (Biovision, cat#: K101-25) followed by flow cytometric analysis[92]^,[93]. Briefly, HL60 and leukaemia SR cells were cultured under optimum conditions followed by compound I c treatment for 48 h. then, washed in PBS, centrifuged, and resuspended in 500 µl of 1 x binding buffer. Moreover, 5 µl of annexin V-FITC, and 5 µl of propidium iodide were added and incubated in dark for 5 min. Finally, apoptotic cells were detected using flow cytometer as well as PI staining by emission signal detector. FACS Calibur flow cytometer (Becton Dickinson Biosciences) was used to analyse the cells’ apoptosis.
# leukaemia SR cells = test: Annexin V-FITC/PI apoptosis and necrosis assay; assay type: cell-based, human; conditions: 48 h treatment
# Procedure: as §1
# NCI-H23 = assay type: cell-based
# SK-OV-3 = assay type: cell-based
# OVCAR-3 = assay type: cell-based
# HOP-92 = assay type: cell-based
# PI3Kδ = target: T3, PI3Kδ (Homo sapiens, UniProt O00329); test: PI3 Kinase Activity/Inhibitor Assay Kit; assay type: biochemical; conditions: mean of two independent replicates ± SD
# T3 construct: purchased Millipore Corporation 17-493 (assay kit)
# T3 sequence (O00329 whole entry): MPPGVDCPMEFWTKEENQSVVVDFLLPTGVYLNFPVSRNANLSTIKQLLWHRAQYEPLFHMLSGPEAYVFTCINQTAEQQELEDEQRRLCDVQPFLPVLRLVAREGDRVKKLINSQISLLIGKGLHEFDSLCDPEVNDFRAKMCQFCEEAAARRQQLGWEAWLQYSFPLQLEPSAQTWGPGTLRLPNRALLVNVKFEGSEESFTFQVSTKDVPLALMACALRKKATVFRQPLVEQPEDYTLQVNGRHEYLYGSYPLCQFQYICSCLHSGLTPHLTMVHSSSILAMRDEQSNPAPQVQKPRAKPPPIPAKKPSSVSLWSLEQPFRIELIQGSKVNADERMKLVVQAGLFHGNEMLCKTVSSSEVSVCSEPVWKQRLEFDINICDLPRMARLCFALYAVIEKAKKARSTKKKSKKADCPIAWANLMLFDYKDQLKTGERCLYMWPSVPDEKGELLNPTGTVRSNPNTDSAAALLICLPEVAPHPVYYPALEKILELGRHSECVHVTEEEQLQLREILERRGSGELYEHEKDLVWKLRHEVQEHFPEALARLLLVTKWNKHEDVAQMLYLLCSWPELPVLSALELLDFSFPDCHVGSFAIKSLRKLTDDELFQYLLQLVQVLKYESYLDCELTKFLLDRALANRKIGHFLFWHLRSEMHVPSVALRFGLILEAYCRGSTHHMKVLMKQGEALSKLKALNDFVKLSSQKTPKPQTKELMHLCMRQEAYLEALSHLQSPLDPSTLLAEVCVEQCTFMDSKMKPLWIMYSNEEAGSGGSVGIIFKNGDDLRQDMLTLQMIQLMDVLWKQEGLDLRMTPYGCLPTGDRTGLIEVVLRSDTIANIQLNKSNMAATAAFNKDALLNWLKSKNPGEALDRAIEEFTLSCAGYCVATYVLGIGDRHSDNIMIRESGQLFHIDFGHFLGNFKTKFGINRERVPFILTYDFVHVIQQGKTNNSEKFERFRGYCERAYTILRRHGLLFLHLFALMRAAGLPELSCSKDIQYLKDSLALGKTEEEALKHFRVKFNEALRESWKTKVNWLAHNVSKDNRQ
# T3 sequence (P27986 whole entry partner): as the sequence (P27986 whole entry partner, species assumed) above
# Procedure: as §4, §5, §6
# [3] = Homo sapiens, five-dose, read-out: LC50 (the source's name)
# [4] = Homo sapiens, one dose 10^-5 M, 48 h
# [5] = Homo sapiens, read-out: GI50 Subpanel MID^b
# [6] = Homo sapiens, one dose 10^-5 M, 48 h, read-out: % growth
smiles,measurement,setting,value
"N#Cc1c(N)nc(S)nc1-c1ccc(Cl)cc1Cl [Compound 1c, 4-Amino-6–(2,4-dichlorophenyl)-2-mercaptopyrimidine-5-carbonitrile]",GI50,"U251; Homo sapiens, U-251, five-dose",13.4 µM
same,CC50,"U251; Homo sapiens, U-251, five-dose, read-out: LC50 (the source's name)",68.9 µM
same,% growth at 10 µM,"U251; Homo sapiens, U-251, one dose 10^-5 M, 48 h",38.8%
same,TGI,U251; five-dose,30.40 µM
same,GI50,"SR; Homo sapiens, five-dose",0.14 µM
same,CC50,SR; [3],> 100 µM
same,percent cell growth at 10 µM,SR; [4],2.54%
same,TGI,SR; five-dose,23.70 µM
same,GI50,[1]; [5],13 µM
same,"Selectivity ratio (full panel MID^a / subpanel MID^b, GI50 level)",[1]; prostate cancer,0.99
same,GI50,"UACC-257; Homo sapiens, five-dose",14.7 µM
same,CC50,UACC-257; [3],67.2 µM
same,percent cell growth at 10 µM,UACC-257; [4],77.7%
same,TGI,UACC-257; five-dose,31.50 µM
same,GI50,"HCT-116; Homo sapiens, five-dose",0.06 µM
same,CC50,HCT-116; [3],63.6 µM
same,activity at 10 µM,HCT-116; [6],-18.8%
same,TGI,HCT-116; five-dose,17.90 µM
same,% growth,"HCT-116; one dose 10^-5 M, 48 h",-18.77%
same,GI50,leukaemia cell lines; [5],0.33 µM
same,GI50,"leukaemia cell lines; Homo sapiens, read-out: GI50 range, leukaemia cell lines",0.08 to 0.7 µM
same,CC50,"leukaemia cell lines; Homo sapiens, read-out: LC50, leukaemia",> 100 µM
same,"Selectivity ratio (full panel MID^a / subpanel MID^b, GI50 level)",leukaemia cell lines; leukaemia,39
same,GI50,"DU-145; Homo sapiens, five-dose",14.9 µM
same,LC50,"DU-145; Homo sapiens, five-dose",57.4 µM
same,% growth at 10 µM,DU-145; [4],51.3%
same,TGI,DU-145; five-dose,29.20 µM
same,IC50,PI3Kβ,0.55 ± 0.002 µM
same,GI50,"IGROV1; Homo sapiens, IGROV-1, five-dose",19.2 µM
same,CC50,"IGROV1; Homo sapiens, IGROV-1, five-dose, read-out: LC50 (the source's name)",87.6 µM
same,activity at 10 µM,"IGROV1; Homo sapiens, IGROV-1, one dose 10^-5 M, 48 h, read-out: % growth",65.7%
same,TGI,IGROV1; five-dose,41.00 µM
same,GI50,"786-0; Homo sapiens, five-dose",17.5 µM
same,CC50,786-0; [3],99.1 µM
same,% growth at 10 µM,786-0; [4],67%
same,TGI,786-0; five-dose,41.60 µM
same,GI50,"A498; Homo sapiens, five-dose",19.8 µM
same,LC50,"A498; Homo sapiens, five-dose",78.5 µM
same,% growth at 10 µM,A498; [4],137%
same,TGI,A498; five-dose,39.40 µM
same,activity at 10 µM,"[2]; Homo sapiens, 60 cell, 48 h, read-out: Mean % growth",53.3%
same,CC50,"[2]; Homo sapiens, 60 cell, read-out: LC50 values (MG-MID)",77.6 µM
same,GI50,"[2]; Homo sapiens, 60 cell, read-out: MID^a, average sensitivity of all cell lines (GI50)",12.9 µM
same,GI50,"[2]; Homo sapiens, 60 cell, read-out: full panel GI50 (MG-MID)",6.76 µM
same,"log10 GI50, range over all 60 cell lines",[2]; five-dose,−4.50 to −7.25
same,"% growth values, cell lines with lethal effect","[2]; one dose, range over those cell lines",−18.77 to −49.21%
same,GI50,melanoma cell lines; [5],10.7 µM
same,"Selectivity ratio (full panel MID^a / subpanel MID^b, GI50 level)",melanoma cell lines; melanoma,1.2
same,GI50,"SK-MEL-2; Homo sapiens, five-dose",17.5 µM
same,LC50,"SK-MEL-2; Homo sapiens, five-dose",66.8 µM
same,% growth at 10 µM,SK-MEL-2; [4],98.6%
same,TGI,SK-MEL-2; five-dose,34.20 µM
same,GI50,"M14; Homo sapiens, five-dose",2.42 µM
same,CC50,M14; [3],93.7 µM
same,% growth at 10 µM,M14; [4],49.8%
same,TGI,M14; five-dose,28.00 µM
same,GI50,"NCI-H522; Homo sapiens, five-dose",15.4 µM
same,CC50,NCI-H522; [3],61.3 µM
same,% growth at 10 µM,NCI-H522; [4],49.4%
same,TGI,NCI-H522; five-dose,30.70 µM
same,GI50,"KM12; Homo sapiens, five-dose",19 µM
same,LC50,"KM12; Homo sapiens, five-dose",80.1 µM
same,% growth at 10 µM,KM12; [4],49.5%
same,TGI,KM12; five-dose,39.00 µM
same,IC50,PI3Kα,0.88 ± 0.005 µM
same,early apoptosis,HL60 cells,23.79%
same,late apoptosis,HL60 cells,9.89%
same,necrosis percentage,HL60 cells,3.41%
same,early apoptosis,leukaemia SR cells,14.97%
same,late apoptosis,leukaemia SR cells,23.02%
same,necrosis percentage,leukaemia SR cells,4.72%
same,GI50,"NCI-H23; Homo sapiens, five-dose",13.1 µM
same,CC50,NCI-H23; [3],60.9 µM
same,activity at 10 µM,NCI-H23; [6],76.1%
same,TGI,NCI-H23; five-dose,28.30 µM
same,GI50,"SK-OV-3; Homo sapiens, five-dose",26.3 µM
same,LC50,"SK-OV-3; Homo sapiens, five-dose",> 100 µM
same,% growth at 10 µM,SK-OV-3; [4],126%
same,TGI,SK-OV-3; five-dose,62.60 µM
same,GI50,"OVCAR-3; Homo sapiens, five-dose",18.1 µM
same,CC50,OVCAR-3; [3],> 100 µM
same,% growth at 10 µM,OVCAR-3; [4],17.1%
same,TGI,OVCAR-3; five-dose,47.60 µM
same,GI50,"HOP-92; Homo sapiens, five-dose",19.8 µM
same,LC50 (50% lethal concentration),"HOP-92; Homo sapiens, five-dose",> 100 µM
same,% growth at 10 µM,HOP-92; [4],105%
same,TGI,HOP-92; five-dose,56.40 µM
same,IC50,PI3Kδ,0.0034 ± 0.004 µM
